Reference: patent US10577362B2, “Substituted 2, 4-diamino-quinoline derivatives for use in the treatment of proliferative diseases” (GENOSCIENCE PHARMA, priority 2016, dated 2020)
Where a name gives a salt, the structure may show the parent alone.

Columns and labels:
Assay type in all cases: cell-based, human
[1] = system: MOLM-14 (acute myeloid leukemia) cell line; assay: CellTiter-Glo luminescent cell viability assay, MOLM-14; details: Homo sapiens; for viability at 4 µM: MOLM-14, compound at 4 μM; for viability at 4 µM / viability at 10 µM: 72 h; for viability at 10 µM: MOLM-14, compound at 10 μM; for EC50: MOLM-14 cell line, 72 h incubation, CellTiter-Glo, read-out: EC50, growth inhibition of MOLM-14
Experimental: (§1) All cell lines were maintained in medium containing 1% penicillin-streptomycin (Dutscher, P06-07100) and 10% Fetal Bovine Serum (Hyclone Dutscher, RZK35922) cultured at 37° C. with 5% CO2. HepG2 (hepatocellular carcinoma), cell line was cultured in Dulbecco's modified Eagle's medium low glucose (Gibco, 21885025), Huh7 (hepatocellular carcinoma), HCT-116 (colorectal carcinoma), PANC-1 (prancreatic carcinoma) and A375 (malignant melanoma) cell lines were cultured in Dulbecco's modified Eagle's medium (Dutscher, L0103). MOLM-14 (acute myeloid leukemia) cell line was maintained in MEM alpha medium (Gibco, 22561-021). 786-0 (renal adenocarcinoma) cell lines were maintained in RPMI 1640 medium (Dutscher, L0498).
(§2) Cell viability was measured using the CellTiter-Glo® luminescent cell viability assay as described by the manufacturer (Promega, Ref G7571) using an Infinite F200Pro luminometer (Tecan). Briefly, for adherent cells, cells were plated onto 96-well plates (white with clear bottom) in 90 μL of media per well and were allowed to grow overnight before the assay. For cells growing in suspension, cells were plated onto 96-well plates 1 h before the assay.
(§3) Compounds were resuspended in H2O or DMSO and added at different concentrations to each well, and cell cultures were incubated for 72 h. Each diluent (H2O or DMSO) were used as a control, and all compounds were tested in a constant percentage of H2O or DMSO. On the day of the reading, plates are equilibrated 30 min at room temperature before the addition of 100 μL of CellTiter-Glo® and luminescence was measured using an Infinite F200Pro (Tecan). % cell viability were expressed as a percentage of the signal obtained for cell cultures treated with diluent. EC50 values were determined as the dose of compound required to reduce luminescent values to 50% of the signal obtained for cell cultures treated with diluent. The experimental data were analyzed using a computer program, Graphpad Prism v5 (GraphPad Software, Inc. La Jolla, Calif.). All points were at least done in duplicate.

[2] = system: A375 (malignant melanoma) cell line; assay: CellTiter-Glo luminescent cell viability assay, A375; details: Homo sapiens, A-375; for viability at 4 µM: A375, compound at 4 μM; for viability at 4 µM / viability at 10 µM: 72 h; for viability at 10 µM: A375, compound at 10 μM; for EC50: A375 cell line, 72 h incubation, CellTiter-Glo, read-out: EC50, growth inhibition of A375
Experimental: as §1, §2, §3

[3] = system: HCT-116 (colorectal carcinoma) cell line; assay: CellTiter-Glo luminescent cell viability assay, HCT-116; details: Homo sapiens; for viability at 4 µM: HCT-116, compound at 4 μM; for viability at 4 µM / viability at 10 µM: 72 h; for viability at 10 µM: HCT-116, compound at 10 μM; for EC50: HCT-116 cell line, 72 h incubation, CellTiter-Glo, read-out: EC50, growth inhibition of HCT-116
Experimental: as §1, §2, §3

[4] = system: Huh7 (hepatocellular carcinoma) cell line; assay: CellTiter-Glo luminescent cell viability assay, Huh7; details: Homo sapiens, Huh-7; for viability at 4 µM: Huh7, compound at 4 μM; for viability at 4 µM / viability at 10 µM: 72 h; for viability at 10 µM: Huh7, compound at 10 μM; for EC50: Huh7 cell line, 72 h incubation, CellTiter-Glo, read-out: EC50, growth inhibition of Huh7
Experimental: as §1, §2, §3

[5] = system: 786-O (renal adenocarcinoma) cell line; assay: CellTiter-Glo luminescent cell viability assay, 786-O; details: Homo sapiens, 786-0; for viability at 4 µM / viability at 10 µM: 786-O, 72 h; for viability at 4 µM: compound at 4 μM; for viability at 10 µM: compound at 10 μM; for EC50: 786-O cell line, 72 h incubation, CellTiter-Glo, read-out: EC50, growth inhibition of 786-O
Experimental: as §1, §2, §3

[6] = system: HepG2 (hepatocellular carcinoma) cell line; assay: CellTiter-Glo luminescent cell viability assay, HepG2; details: Homo sapiens; for viability at 4 µM / viability at 10 µM: HepG2, HepG, 72 h; for viability at 4 µM: compound at 4 μM; for viability at 10 µM: compound at 10 μM; for EC50: HepG2 cell line, 72 h incubation, CellTiter-Glo, read-out: EC50, growth inhibition of HepG2
Experimental: as §1, §2, §3

EC50 [1] [µM]	EC50 [2] [µM]	EC50 [3] [µM]	EC50 [4] [µM]	EC50 [5] [µM]	EC50 [6] [µM]	Compound	viability at 4 µM [1] [%]	viability at 10 µM [1] [%]	viability at 4 µM [2] [%]	viability at 10 µM [2] [%]	viability at 4 µM [3] [%]	viability at 10 µM [3] [%]	viability at 4 µM [4] [%]	viability at 10 µM [4] [%]	viability at 4 µM [5] [%]	viability at 10 µM [5] [%]	viability at 4 µM [6] [%]	viability at 10 µM [6] [%]
						N#Cc1c(NCc2ccc(Cl)cc2)nc2ccccc2c1N1CCC(Oc2ccc(Cl)cc2)C1 (centres unmarked) [Compound 3336CN, 2-(4-chlorobenzylamino)-3-cyano-4-[3-(4-chlorophenoxy)pyrrolidin1--yl]quinoline]	98.8	89.8	106	107	99	92	95.6	93.8	82.8	79.8	75.4	74.5
						CC(C)(C)NC1CCN(c2c(F)c(Nc3cccc(Nc4nccc(C(F)(F)F)n4)c3)nc3ccccc23)CC1 [Compound 540F, 2-[3-(4-trifluoromethylpyrimidin-2-ylamino)phenylamino]-3-fluoro-4-(4-tert-butylaminopiperidin-1-yl)quinoline]	8.8	0.3	0.4	0.3	0.4	0.3	43.3	59.4	0.8	0.3	0.3	0.2
5 to 10	0.5 to 5	0.5 to 5	5 to 10	0.5 to 5	0.5 to 5	Cc1cc(C)nc(Nc2ccc(Nc3nc4ccccc4c(N4CCC(NC(C)(C)C)CC4)c3C#N)cc2C)n1 [Compound 502CN, 2-[4-(4,6-dimethyl-2-pyrimidinamino)-3-methyl-phenylamino]-3-cyano-4-(4-tert-butylaminopiperidin-1-yl)-quinoline]												
5 to 10	0.5 to 5	0.5 to 5	5 to 10	5 to 10	0.5 to 5	Cc1ccc(Nc2nc3ccccc3c(N3CCC(NC(C)(C)C)CC3)c2C#N)cc1Nc1nccc(C(F)(F)F)n1 [Compound 538CN, 2-[3-(4-trifluoromethylpyrimidin-2-ylamino)-4-methyl-phenylamino]-3-cyano-4-(4-tert-butylaminopiperidin-1-yl)-quinoline]												
						Cc1ccc(OC2CCCN(c3c(C#N)c(NCc4ccc(Cl)cc4)nc4ccccc34)C2)cc1 (centres unmarked) [Compound 3234CN, 2-(4-chlorobenzylamino)-3-cyano-4-[3-(4-methylphenoxy)piperidin-1-yl]quinoline]	94.4	92	107	102	93.8	90.7	99.2	95.5	89.8	80.5	89.8	
0.5 to 5	0.5 to 5	0.5 to 5	0.5 to 5	0.5 to 5	5 to 10	CC(C)(C)NC1CCN(c2c(C#N)c(Nc3cccc(Nc4nccc(C(F)(F)F)n4)c3)nc3ccccc23)CC1 [Compound 540CN, 2-[3-(4-trifluoromethylpyrimidin-2-ylamino)phenylamino]-3-cyano-4-(4-tert-butylaminopiperidin-1-yl)quinoline]												
						COc1ccc(OC2CCN(c3c(C#N)c(NCc4ccc(Cl)cc4)nc4ccccc34)CC2)cc1 [Compound 3224CN, 2-(4-chlorobenzylamino)-3-cyano-4-[4-(4-methoxyphenoxy)piperidin-1-yl]quinoline]	112	94.6	96	91.7	89.8	65.1	116	90	96.3	88.9	91.6	70
0.5 to 5	0.5 to 5	0.5 to 5	0.5 to 5	5 to 10	0.5 to 5	COC[C@@H]1CCCN1c1cc(NCc2ccc(Cl)cc2)nc2ccccc12 [Compound 2310, (2S) 2-(4-chlorobenzylamino)-4-[2-(methoxymethyl)pyrrolidin-1-yl]quinoline, hydrochloride]												
						COc1ccc(OC2CCCN(c3c(C#N)c(NCc4ccc(Cl)cc4)nc4ccccc34)C2)cc1 (centres unmarked) [Compound 3232CN, 2-(4-chlorobenzylamino)-3-cyano-4-[3-(4-methoxyphenoxy)piperidin-1-yl]quinoline]	91.1	99.8	104	99.4	93.9	82.9	98.7	90.3	79.9	73.5	79.9	72.3
0.5 to 5	0.5 to 5	0.5 to 5	0.5 to 5	0.5 to 5	0.5 to 5	Clc1ccc(CNc2cc(N3CC(N4CCCC4)C3)c3ccccc3n2)cc1 [Compound 116, 2-(4-chlorobenzylamino)-4-[3-(pyrrolidin-1-yl)azetidin-1-yl]quinoline hydrochloride]												
						N#Cc1c(NCc2ccc(Cl)cc2)nc2ccccc2c1N1CCCC(Oc2ccc(F)cc2)C1 (centres unmarked) [Compound 3238CN, 2-(4-chlorobenzylamino)-3-cyano-4-[3-(4-fluorophenoxy)piperidin-1-yl]quinoline]	101	91.6	106	102	97.8	85.1	97.7	93.7	90.7	86.1	95.9	90.8
						Cc1cc(CNc2nc3ccccc3c(N3CCC(NC(C)(C)C)CC3)c2C#N)ccc1Nc1nccc(-c2cccnc2)n1 [Compound 498CN, 2-[4-(4-(pyridin-3-yl)pyrimidin-2-ylamino)-3-methylbenzylamino]-3-cyano-4-(4-tert-butylaminopiperidin-1-yl)quinoline]	0.3	0.2	0.2	0.1	0.2	0.1	58.5	0.2	0.2	0.1	0.2	0.1
0.5 to 5	0.5 to 5	0.5 to 5	0.5 to 5	5 to 10	0.5 to 5	OC[C@H]1CCCN1c1cc(NCc2ccc(Cl)cc2)nc2ccccc12 [Compound 2380, (2R)-2-(4-chlorobenzylamino)-4-[2-(hydroxymethyl)-pyrrolidin-1-yl]-quinoline hydrochloride]												
5 to 10	0.5 to 5	0.5 to 5	5 to 10	0.5 to 5	5 to 10	Cc1ccnc(Nc2ccc(Nc3nc4ccccc4c(N4CCC(NC(C)(C)C)CC4)c3C#N)cc2)n1 [Compound 532CN, 2-[4-(4-methylpyrimidin-2-ylamino)phenylamino]-3-cyano-4-(4-tert-butylaminopiperidin-1-yl)quinoline]												
